The results in this text go back to PubChem BioAssay (NCI).

Each structure is given as a SMILES string.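 Five concentrations, 48 hours, 96-well plates. GI50 = concentration required for 50% inhibition of growth. TGI marks complete inhibition of growth.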

Test in all cases: NCI anticancer screen, dose series, 48 h
For experiment [1], the system named is IGROV1 ovarian.
For experiment [2], the system named is CAKI-1 renal.
The subject of experiment [3] is SF-268 CNS.
The subject of experiment [4] is HL-60(TB) leukemia.
Experiment [5] has as its system HCT-15 colon.
Experiment [6] has as its system HOP-92 NSCLC.
The subject of experiment [7] is 786-0 renal.
For experiment [8], the system named is SK-MEL-5 melanoma.
Experiment [9] relates to SK-MEL-2 melanoma.
Experiment [10] concerns UO-31 renal.

Consider `CCOC(=O)C(=Cc1cccc(Cl)c1)C(=O)OCC`, for which the GI50 in experiment [1] was 2.4 µM; in [2], 2.19 µM; in [3], 2.54 µM; in [4], 2.18 µM; in experiment [5] it was 1.96 µM; in experiment [6], 1.74 µM. Further, the GI50 in [7] was 1.93 µM; in experiment [8] it was 1.83 µM; in [9], 2.1 µM; in experiment [10], 1.84 µM. Moreover, the TGI in experiment [1] was 7.85 µM; in experiment [2] it was 5.45 µM; in [3] it was 7.96 µM; in [4], 5.65 µM; in experiment [5] it was 5.27 µM; in experiment [6] it was 4.49 µM. In addition, the TGI in [7] is 4.26 µM; in [8], 3.35 µM; in experiment [9], 4.24 µM; in experiment [10], 4.12 µM.

Take `O=C(c1ccc(Cl)cc1)c1cnc(Nc2ccccc2Cl)s1`: the TGI was 74.2 µM in experiment [1]; 40 µM in experiment [2]; 57.6 µM in experiment [3]; above 100 µM in experiment [4]; 51.6 µM in experiment [5]; 49.5 µM in [6]. For the same molecule, the TGI in experiment [7] was 39.1 µM; in experiment [8], 55.2 µM; in [9], 30.7 µM; in experiment [10], 50.1 µM.

With `COc1ccc2[nH]cc(-c3nc(-c4c[nH]c5ncccc45)cs3)c2c1`, the GI50 in experiment [1] is 5.46 µM; in experiment [2], 2.05 µM; in experiment [3], 6.66 µM; in [4], 1.81 µM; in experiment [5] it was 2.61 µM; in experiment [6], 2.13 µM. For the same molecule, the GI50 was 1.97 µM in experiment [7], 2.87 µM in experiment [8], 8.36 µM in experiment [9] and 1.41 µM in experiment [10]. Moreover, the TGI in [1] is above 100 µM; in experiment [2], above 100 µM; in experiment [3], above 100 µM; in experiment [4], above 100 µM; in [5], above 100 µM; in experiment [6], 8.12 µM. Also, the TGI in [7], in experiment [8], in experiment [9] and in experiment [10] was above 100 µM in each case.

On to `CCOC(=O)C1(c2ccccc2)CCC(=O)CC1`, for which the TGI in experiment [1], in [2], in experiment [3], in experiment [4], in [5] and in experiment [6] was above 100 µM throughout. In addition, the TGI in experiment [7], in [8], in experiment [9] and in experiment [10] was above 100 µM in each case.

In the case of `Cc1csc(Nc2nc(-c3cccc(Br)c3)nc(C(Cl)(Cl)Cl)n2)n1`, the GI50 is above 100 µM in [1]; 2.41 µM in experiment [2]; 4.65 µM in experiment [3]; 1.04 µM in [4]; 4.95 µM in experiment [5]; 1.1 µM in [6]. The GI50 in experiment [7] is 7.75 µM; in experiment [8], above 100 µM; in [9] it was above 100 µM; in experiment [10], 2.51 µM. The TGI is above 100 µM in experiment [1]; above 100 µM in [2]; above 100 µM in [3]; 3.96 µM in [4]; above 100 µM in experiment [5]; 6.16 µM in [6]. In addition, the TGI in experiment [7], in [8], in experiment [9] and in experiment [10] was above 100 µM each time.

For the molecule `Cc1[nH]c2ccccc2c1-c1cc(-c2cc(-c3c(C)[nH]c4ccccc34)on2)no1`, the TGI in [1], in [2], in experiment [3], in [4], in [5] and in [6] was above 100 µM throughout. The TGI in experiment [7], in [8], in experiment [9] and in experiment [10] was above 100 µM throughout.

Take `C=CCc1cccc(/C=N/NC(=O)CN2CCN(Cc3ccccc3)CC2)c1O`: the GI50 in experiment [1] was 0.483 µM; in experiment [2], 0.841 µM; in experiment [3] it was 1.99 µM; in experiment [4], 1.6 µM; in [5], 0.693 µM; in experiment [6] it was 1.28 µM. Further, the GI50 is 2.04 µM in [7], 1.26 µM in [8], 2.31 µM in experiment [9] and 1.15 µM in experiment [10]. Moreover, the TGI in experiment [1] amounted to 3.13 µM; in [2] it was 2.12 µM; in experiment [3] it was 16.4 µM; in [4], 4.79 µM; in experiment [5] it was 15.1 µM; in [6] it was 6.22 µM. In addition, the TGI turned out to be 12.1 µM in experiment [7], 3.53 µM in experiment [8], 11.5 µM in [9] and 7.38 µM in experiment [10].

In the case of `CCCCCCC[CH2][Sn]1([CH2]CCCCCCC)[O]C(=O)c2cccnc2[S]1`, the GI50 in experiment [1], in experiment [2], in [4], in experiment [5], in experiment [6] and in experiment [7] was above 100 µM in each case. Further, the GI50 in experiment [8], in experiment [9] and in experiment [10] was above 100 µM throughout. Moreover, the TGI in experiment [1], in [2], in experiment [4], in [5], in experiment [6] and in [7] was above 100 µM each time. In addition, the TGI in experiment [8], in experiment [9] and in experiment [10] was above 100 µM throughout.

Regarding `CCN(CC)c1nc(-c2ccc(Cl)cc2Cl)nc2ccccc12`, the GI50 is 25.9 µM in [1]; 16.5 µM in experiment [2]; 23.1 µM in experiment [3]; 26.2 µM in [4]; 19.3 µM in experiment [5]; 22 µM in experiment [6]. Moreover, the GI50 is 22.2 µM in experiment [7], 17.8 µM in experiment [8], above 41.8 µM in [9] and 24.9 µM in [10]. Also, the TGI was above 100 µM in experiment [1]; 62.4 µM in experiment [2]; above 68.8 µM in experiment [3]; above 100 µM in experiment [4]; 48.9 µM in experiment [5]; 93.4 µM in experiment [6]. The TGI in experiment [7] is 61.9 µM; in experiment [8], 33.3 µM; in [9] it was above 67.7 µM; in experiment [10] it was above 90.5 µM.

With `O=c1[nH]c(=O)n(C2CC(O)C(CO)O2)cc1CO` (configuration not stated), the GI50 in experiment [1] was above 100 µM; in experiment [2], above 100 µM; in experiment [3] it was above 100 µM; in experiment [4] it was above 100 µM; in [5] it was above 100 µM; in [6] it was 43.3 µM. In addition, the GI50 in experiment [7] is 5.33 µM; in experiment [8] it was above 100 µM; in [9], above 100 µM; in experiment [10], above 100 µM. Moreover, the TGI in experiment [1], in experiment [2], in experiment [3], in [4], in experiment [5] and in experiment [6] was above 100 µM each time. The TGI in experiment [7], in [8], in [9] and in [10] was above 100 µM each time.

As for `COc1cc(-c2nn(-c3cccc(NC(=O)Nc4ccc(Cl)c(Cl)c4)c3)cc2-c2ccncc2)ccc1Cl`, the GI50 in experiment [1] was 1.18 µM; in [2], 1.12 µM; in experiment [3], 1.51 µM; in experiment [4], 1.66 µM; in experiment [5], 1.23 µM; in experiment [6], 0.151 µM. Besides, the GI50 was 1.31 µM in [7], 0.741 µM in [8], 1.14 µM in experiment [9] and 0.845 µM in [10]. The TGI is 3.48 µM in [1]; 3.7 µM in experiment [2]; 20.3 µM in experiment [3]; above 50 µM in [4]; above 50 µM in experiment [5]; 1.47 µM in experiment [6]. The TGI in [7] turned out to be 4.48 µM; in experiment [8], 1.49 µM; in [9], 2.35 µM; in experiment [10], 4.96 µM.

Regarding `CCCn1c(N)c(C(=O)N/N=C(/C)c2cc3cccc(OC)c3o2)sc1=S`, the GI50 in experiment [1] was 48.2 µM; in [2], 0.0161 µM; in experiment [3], 22.4 µM; in experiment [4] it was above 100 µM; in [5] it was 22.1 µM; in [6], 27.4 µM. Besides, the GI50 in [7] is 25.5 µM; in experiment [8], 36.1 µM; in [9], 53.3 µM; in experiment [10], 27.7 µM. Moreover, the TGI is above 100 µM in [1]; above 100 µM in experiment [2]; above 100 µM in experiment [3]; above 100 µM in [4]; above 100 µM in experiment [5]; 78.8 µM in experiment [6]. For the same molecule, the TGI is 51.6 µM in [7], above 100 µM in experiment [8], above 100 µM in experiment [9] and above 100 µM in [10].

Take `CC(=O)OC12c3ccccc3-c3ccccc3C1C1C(=O)N(C)C(=O)C12Cl` (configuration not stated): the TGI in experiment [1], in experiment [2], in [3], in [4], in experiment [5] and in experiment [6] was above 10 µM in each case. Further, the TGI in experiment [7], in experiment [8], in experiment [9] and in experiment [10] was above 10 µM throughout.

Consider `CC[C@@]12N=C(N(C)C)C[C@]1(O)ON=C2C`, for which the TGI in experiment [1], in [2], in experiment [3], in [4], in [5] and in experiment [6] was above 100 µM throughout. Moreover, the TGI in [7], in [8], in experiment [9] and in [10] was above 100 µM throughout.

For `Cc1ccc(NC(=O)C2C(=O)N(c3ccc(C)c(C)c3)C(=O)C2N=N)cc1C` (configuration not stated), the TGI in experiment [1], in experiment [2], in experiment [3], in experiment [4], in [5] and in experiment [6] was above 100 µM each time. Further, the TGI in experiment [7], in experiment [8], in experiment [9] and in experiment [10] was above 100 µM in each case.

For the molecule `COc1ccc(-c2oc(=O)ccc2-c2cc(OC)c(OC)c(OC)c2)cc1F`, the GI50 in experiment [2] is 9.64 µM; in experiment [3] it was 33.6 µM; in experiment [4], 3.52 µM; in [5] it was 5.42 µM; in experiment [6], 5.69 µM; in experiment [7], 36.4 µM. In addition, the GI50 in experiment [8] is 7.46 µM; in [9] it was 6.98 µM; in experiment [10], 8.79 µM. In addition, the TGI in [2] was above 100 µM; in [3], above 100 µM; in [4], 26.8 µM; in experiment [5], above 100 µM; in [6] it was 65 µM; in [7], above 100 µM. In addition, the TGI is 58.7 µM in experiment [8], above 100 µM in [9] and 35.8 µM in [10].

For `CC1=C2CCCC2=C/C(=N/Nc2ccc([N+](=O)[O-])cc2[N+](=O)[O-])CC1`, the TGI in experiment [1], in experiment [2], in experiment [3], in [4], in experiment [6] and in experiment [7] was above 100 µM each time. For the same molecule, the TGI in [8], in [9] and in [10] was above 100 µM throughout.

For `COc1cccc2c1C(=O)c1c(O)c3c(c(O)c1C2=O)CC(O)(/C(C)=N/NC(=O)CCC(=O)N/N=C(\C)C1(O)Cc2c(O)c4c(c(O)c2C(OC2CC(N)C(O)C(C)O2)C1)C(=O)c1c(OC)cccc1C4=O)CC3OC1CC(N)C(O)C(C)O1` (configuration not stated), the GI50 is 0.108 µM in experiment [1]; 0.895 µM in [2]; 0.259 µM in experiment [3]; 0.397 µM in experiment [4]; 3.51 µM in [5]; 0.438 µM in experiment [6]. Besides, the GI50 in experiment [7] is 0.182 µM; in [9], 0.111 µM; in experiment [10], 0.158 µM. Further, the TGI in [1] is 1.08 µM; in experiment [2] it was 17.7 µM; in experiment [3], 8.11 µM; in experiment [4], 4.23 µM; in experiment [5], above 50 µM; in experiment [7], 1.06 µM. Besides, the TGI in experiment [9] was 0.343 µM; in experiment [10], 1.09 µM.
